Reference: PubChem BioAssay (NCI)
“And” between values parts separate entries of the source, which are not always exact repeats. Equal values may be shown once.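 Cells were grown in 96-well plates and exposed to each compound for 48 hours at five concentrations; endpoints were interpolated linearly between bracketing concentrations, or set to the highest concentration if not reached. Abbreviation: GI50, concentration required for 50% inhibition of growth. TGI marks complete inhibition of growth.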

Legend:
Test in all cases: DTP human tumour cell line panel, 48 h
HS 578T breast = tested on: HS 578T breast
NCI-H522 lung = tested on: NCI-H522 lung
U251 CNS = tested on: U251 CNS
OVCAR-8 ovarian = tested on: OVCAR-8 ovarian
T-47D breast = tested on: T-47D breast
A549 NSCLC = tested on: A549 NSCLC
HT29 colon = tested on: HT29 colon
MDA-MB-435 = tested on: MDA-MB-435
DU-145 prostate = tested on: DU-145 prostate
COLO 205 colon = tested on: COLO 205 colon

Structure (SMILES) | GI50 (HS 578T breast) | TGI (HS 578T breast) | GI50 (NCI-H522 lung) | TGI (NCI-H522 lung) | GI50 (U251 CNS) | TGI (U251 CNS) | GI50 (OVCAR-8 ovarian) | TGI (OVCAR-8 ovarian) | GI50 (T-47D breast) | TGI (T-47D breast) | GI50 (A549 NSCLC) | TGI (A549 NSCLC) | GI50 (HT29 colon) | TGI (HT29 colon) | GI50 (MDA-MB-435) | TGI (MDA-MB-435) | GI50 (DU-145 prostate) | TGI (DU-145 prostate) | GI50 (COLO 205 colon) | TGI (COLO 205 colon)
COc1cc2cc(Oc3ccc(NC(=O)Nc4ccc(F)c(C(F)(F)F)c4)cc3)c(C)nc2cc1OCCN1CCOCC1 | 2.12 µM | 8.9 µM | 2.04 µM | 9.43 µM | 2.83 µM | 11.1 µM | 2.73 µM | > 100 µM | 1.91 µM | 32.1 µM | 2.57 µM | 34.3 µM | 3.07 µM | 21.8 µM | 1.91 µM | 3.9 µM | 3.5 µM | 15.2 µM | 1.87 µM | 4.28 µM
O=C(NCCNc1nccc(-c2c(-c3ccc(F)cc3)nc3sccn23)n1)Nc1cccc(C(F)(F)F)c1 | 8.17 µM | 65.5 µM | 12.2 µM | 26 µM | 7.62 µM | 31.7 µM | 3.76 µM | 27.4 µM | 2.15 µM | 8.48 µM | 5.51 µM | 24.5 µM | 6.44 µM | 28 µM | 3.12 µM | 11.4 µM | 11.6 µM | 30.9 µM | 2.57 µM | 7.73 µM
COc1ncnn2ccc(-c3cnc4nc(C)n(Cc5nnc(C(C)F)o5)c4c3)c12 (centres undefined) | 0.265 µM | 7.21 µM | 0.0859 µM | 0.363 µM | 0.249 µM | > 100 µM | 0.245 µM | > 100 µM | 0.0853 µM | > 100 µM | 0.136 µM | > 100 µM | 0.253 µM | 0.631 µM | 0.223 µM | > 100 µM | 0.288 µM | > 100 µM | 0.11 µM | 0.468 µM
O=C(O)c1cc(C(=O)C(=O)c2cc(C(=O)O)c(O)c3ccccc23)c2ccccc2c1O |  | > 100 µM |  | > 100 µM |  | > 100 µM |  | > 100 µM |  | > 100 µM |  | > 100 µM |  | > 100 µM |  | > 100 µM |  | > 100 µM |  | > 100 µM
CSc1nc(SC)c2c(C)cn(Cc3ccccc3)c2n1 |  | > 100 µM |  | > 100 µM |  | > 100 µM |  | > 100 µM |  | > 100 µM |  | > 100 µM |  | > 100 µM |  | > 100 µM |  | > 100 µM |  | > 100 µM
CCCC(c1cc(C(C)(C)C)c(O)cc1C)c1cc(C(C)(C)C)c(O)cc1C |  | 9.79 µM |  | 5.72 µM |  | 6.85 µM |  | 12.9 µM |  | 8.92 µM |  | 9.78 µM |  | 17.5 µM |  | 7.18 µM |  | 14.7 µM |  | 5.4 µM
Nc1nc(N)c2cc(Sc3ccc(Cl)cc3)ccc2n1 | 1.72 µM | 12.4 µM | 1.35 µM | 3.87 µM | 0.526 µM | 1.99 µM | 0.961 µM | 2.61 µM | 1.61 µM | 3.33 µM | 0.254 µM | 12.9 µM | 0.516 µM | 2.4 µM | 0.403 µM | 1.91 µM | 1.9 µM | 14.6 µM | 1.28 µM | 2.83 µM
COc1cccc(Nc2ncnn3ccc(CN4CC[C@@H](N)[C@H](O)C4)c23)c1 | 0.698 µM and 0.395 µM | 5.18 µM and 2.69 µM | 0.0245 µM and 0.0175 µM | 15.1 µM and > 4.56 µM | 14.4 µM and > 5.46 µM | 49.3 µM and > 10 µM | 2.73 µM and 1.66 µM | 40.3 µM and > 10 µM |  | 29.2 µM and > 6.86 µM | 2.22 µM and 0.928 µM | 23.6 µM and > 7.05 µM | 8.67 µM and > 2.25 µM | > 56.6 µM | 14.8 µM and > 4.71 µM | 29.9 µM and > 10 µM | 1.59 µM and 0.927 µM | > 100 µM | 3.73 µM and 3.13 µM | 18.2 µM and > 6.18 µM
